We go through 19 compounds from patent US5545647A, “3-phenylpyrrolidine derivatives” (Mitsubishi Chemical Corporation, priority 1994, dated 1996).

One experiment has as its system PDE IV.
Assay: not given
Conditions: Adv. Second Messenger Phosphoprotein Res., 22, 1 (1988); cited from earlier work.
For `COc1ccc(C2CNC(=O)C2)cc1OC1CCCC1` (centres unmarked) [roliplam, reference compound], the “specific inhibition to PDE IV” value is “specific inhibition to PDE IV”.

A further experiment relates to Phosphodiesterase (PDE) IV. In words: Action to Phosphodiesterase (PDE) IV Enzyme Activities (3H-cAMP hydrolysis, enzyme from U-937 cells). In kind it is biochemical. Conditions: human histiocytic lymphoma (U-937) cytoplasm fraction enzyme; 0.4 μM 3H-cAMP; pH 8.0; 15 minutes at 30° C.; read-out: PDE IV inhibitory activity IC50. As for the experimental part: Action to Phosphodiesterase (PDE) IV Enzyme Activities
Enzyme was partialy purified from human histiocytic lymphoma(U-937) cytoplasm fraction by means of the Q-sepharose column according to the method of Nicholson and collaborators [Br. J. Pharmacol., 97, 889 (1989)], and was reacted in a solution of 0.1 mg/ml BSA (bovine serum albumin), 1 mM EDTA (ethylenediaminetetra acetic acid), 5 mM MgCl2 and 50 mM Tris-buffer (pH 8.0) for 15 minutes at 30° C. using 0.4 μM ^3 H-cAMP as substrate according to the method of Hidaka and collaborators [Biochem. Med., 10, 301 (1974)]. ^3 H-5'-AMP generated was separated by means of the cation exchange column, and the enzyme activity was determined by measuring a radioactivity amount.
A test compound was added. After incubation for 15 minutes at 30° C., the substrate was added. Inhibition ratios were derived for respective concentrations assuming that the reaction without the test compound was 100%. By using the probit analysis, the concentration (IC50) showing the inhibition rate of 50% was derived.
Consider `COc1ccc(C2CCN(C(=O)OCc3cccnc3)C2)cc1OC1CCCC1` (racemic) [Compound No. 13, (±)-3-(3-cyclopentyloxy-4-methoxyphenyl)-l-(3pyridylmethoxycarbonyl) pyrrolidine], for which the IC50 came out at 3.3 nM. As to `COc1ccc(C2CCN(C(=O)OCc3cccnc3)C2)cc1OC1CCCC1` (single isomer, unassigned; (-)) [Compound No. 48, (-)-3-(3-cyclopentyloxy-4-methoxyphenyl)-1-(3-pyridylmethoxycarbonyl) pyrrolidine], the 50% inhibitory concentration (IC50) was 1.1 nM. Consider `COc1ccc(C2CCN(C(=O)OC(C)(C)C)C2)cc1OC1CCCC1` (centres unmarked) [Compound No. 1], for which the half-maximal inhibitory concentration (IC50) came out at 10 nM. For `CCOC(=O)N1CCC(c2ccc(OC)c(OC3CCCC3)c2)C1` (centres unmarked) [Compound No. 4, 3-(3-cyclopentyloxy-4-methoxyphenyl)-1-(ethoxycarbonyl) pyrrolidine], the IC50 stood at 11 nM. Take `COc1ccc(C2CCN(C(=O)OCc3ccccc3)C2)cc1OC1CCCC1` (centres unmarked) [compound 3]: the IC50 stood at 6 nM. Consider `CCCCOC(=O)N1CCC(c2ccc(OC)c(OC3CCCC3)c2)C1` (centres unmarked) [compound 6], for which the IC50 was 6 nM.

As for `COc1ccc(C2CCN(C(=O)c3ccccc3)C2)cc1OC1CCCC1` (centres unmarked) [compound 7], the IC50 worked out at 20 nM. Regarding `COc1ccc(C2CCN(C(=O)OC(C)(C)C)C2)cc1OC1CCOC1` (centres unmarked) [compound 8], the IC50 is 19 nM.

For `COc1ccc(C2CCN(C(=O)OCc3ccc[n+]([O-])c3)C2)cc1OC1CCCC1` (centres unmarked) [compound 17], the IC50 was 23 nM. Take `COc1ccc(C2CCN(C(=O)OCc3ccncc3)C2)cc1OC1CCCC1` (centres unmarked) [compound 19]: the IC50 was 3.8 nM. For the compound `COc1ccc(C2CCN(C(=O)OCc3ccccn3)C2)cc1OC1CCCC1` (centres unmarked) [compound 24], the IC50 worked out at 2.3 nM. On to `COc1ccc(C2CCN(C(=O)OCc3cccc[n+]3[O-])C2)cc1OC1CCCC1` (centres unmarked) [compound 26], for which the IC50 came to 8.8 nM. The same measure, in the same setting: the result for `COc1cc2c(cc1OC)CN(C(=O)N1CCC(c3ccc(OC)c(OC4CCCC4)c3)C1)CC2` (centres unmarked) [compound 32] reads 25 nM.

As for `COc1ccc(C2CCN(C(=O)OCCc3ccccn3)C2)cc1OC1CCCC1` (centres unmarked) [compound 36], the IC50 was 11 nM. As to `COc1ccc(C2CCN(C(=O)OCc3ccnc(Cl)c3)C2)cc1OC1CCCC1` (centres unmarked) [compound 37], the IC50 was determined as 19 nM. As for `COc1ccc(C2CCN(C(=O)OCc3ccc(Cl)nc3)C2)cc1OC1CCCC1` (centres unmarked) [compound 38], the IC50 turned out to be 23 nM. Take `COc1ccc(C2CCN(C(=S)OCc3cccnc3)C2)cc1OC1CCCC1` (centres unmarked) [compound 40]: the IC50 is 10 nM. `COc1ccc(C2CCN(C(=O)OCc3cccnn3)C2)cc1OC1CCCC1` (centres unmarked) [compound 42]: the IC50 turned out to be 8 nM. Consider `COc1ccc(C2CNC(=O)C2)cc1OC1CCCC1` (centres unmarked) [roliplam, reference compound], for which the IC50 came to 300 nM.

In general, IC50 refers to the midpoint of a concentration-inhibition curve.
